In the NIST ThermoML archive (doi:10.1021/je050151n):
“And” between values parts separate entries of the source, which are not always exact repeats. Identical values can stand only once.

Key:
[1] = refractive index (Na D-line) (dimensionless); details: 293.15 K; 101.33 kPa; Liquid; Standard Abbe refractometry
[2] = 101.33 kPa, Liquid; for mass density: Vibrating tube method; for viscosity: Vibrating wire viscometry

CC(C)CCCCCCCOC(=O)c1ccccc1C(=O)OCCCCCCCC(C)C
Details | refractive index
[1] | 1.4845

[2]
Details | mass density [kg/m3] | viscosity
283.16 K | 973.52 | 267.36 mPa·s
288.26 K | 969.85 | 176.04 mPa·s
293.21 K | 966.38 | 123.07 mPa·s and 122.75 mPa·s
298.24 K | 962.82 | 87.8 mPa·s
303.21 K | 959.3 | 64.84 mPa·s
308.2 K | 955.78 | 48.73 mPa·s
313.21 K | 952.22 | 37.57 mPa·s
